The target in data set [1] is T1, histamine H3 receptor (Rattus norvegicus, UniProt Q9QYN8).
T1 construct: from tissue; host or cells: rat striatum (Sprague-Dawley, male, 6 weeks), membrane homogenate
Put plainly: Histamine H3 receptor binding assay ([3H]-Nα-methylhistamine binding to rat striatum homogenate). The note with it: 1 μmol/L test compound; [3H]-Nα-methylhistamine 1 nmol/L; striata of Sprague-Dawley male rats, 25° C., 1 hour; read-out: Inhibition ratio of [3H]-Nα-methylhistamine binding. In outline: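 Rat striatum membranes (20 μg protein) incubated with [3H]-Nα-methylhistamine 1 nmol/L in 50 mmol/L Tris/HCl pH 7.4, 5 mmol/L EDTA, 1 hour at 25° C; bound ligand by filtration and scintillation counting. Nonspecific binding defined with 10 μmol/L thioperamide; % inhibition reported at 1 μmol/L compound.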

Data set [2] deals with T1, histamine H3 receptor. In words: Inhibitory effect on histamine release suppressive action of histamine H3 receptor agonist (Nα-methylhistamine) in rat forebrain synaptosomes. Format: biochemical. The note with it: 1 μmol/L test compound and 1 μmol/L Nα-methylhistamine, potassium 30 mmol/L stimulation, read-out: Inhibition ratio of the [3H]-histamine release suppressive action of Nα-methylhistamine. The procedure: To the forebrains of Sprague-Dawley male rats (6 to 8 weeks of age), a 30-fold volume of a 0.32 mol/L aqueous sucrose solution was added and the forebrains were homogenized. The resulting homogenate was centrifuged (1,000×g, 4° C., 10 min), and to the obtained supernatant, an equivalent volume of Krebs-Ringer solution [120 mmol/L sodium chloride, 0.8 mmol/L potassium chloride, 2.6 mmol/L calcium chloride, 0.67 mmol/L magnesium sulfate, 1.2 mmol/L potassium dihydrogen phosphate, 27.5 mmol/L sodium bicarbonate, 10 mmol/L glucose (pH 7.3)] was added, and the resulting mixture was centrifuged (10,000×g, 4° C., 15 min). To the obtained precipitate, a 15-fold volume of Krebs-Ringer solution was added to suspend the precipitate. Then, the concentration of protein in the resulting tissue homogenate (synaptosomes) was measured and used for a test.
To the synaptosomes (300 μg in terms of protein amount) prepared by the above-described method, a [^3H]-histidine solution [final concentration: […] (740 kBq)/mL]: 6 μl of a 37 MBq/mL (specific activity: […]) solution] was added, and the total volume was adjusted to 300 μL with Krebs-Ringer solution. Then, the resulting mixture was incubated at 37° C. for 30 minutes and centrifuged (10,000×g, 25° C., 3 min). To the resulting precipitate (synaptosomes), 300 μL of Krebs-Ringer solution was added, and the mixture was incubated at 37° C. for 5 minutes and centrifuged (10,000×g, 25° C., 3 min). This procedure was repeated 5 times, whereby washing of synaptosomes was carried out. The resulting synaptosomes were suspended in 100 μL of Krebs-Ringer solution, and the resulting suspension was used for the following procedure.
A test compound and N^α-methylhistamine were separately dissolved in Krebs-Ringer solution to give a concentration of 20 μmol/L (the resulting mixtures were referred to as a test compound solution and a N^α-methylhistamine solution, respectively). To 100 μL of the above-described suspended synaptosomes (300 μg in terms of protein amount), 140 μL of Krebs-Ringer solution was added. Then, 30 μL of the test compound solution and 30 μL of the N^α-methylhistamine solution were added thereto, and the resulting mixture was incubated at 37° C. for 2 minutes. Then, an equivalent volume of a stimulating solution [64 mmol/L sodium chloride, 56.8 mmol/L potassium chloride, 2.6 mmol/L calcium chloride, 0.67 mmol/L magnesium sulfate, 1.2 mmol/L potassium dihydrogen phosphate, 27.5 mmol/L sodium bicarbonate, 10 mmol/L glucose (pH 7.3)] (final potassium concentration: 30 mmol/L) was added, and the resulting mixture was incubated at 37° C. for 2 minutes to release [^3H]-histamine. The reaction mixture was centrifuged (10,000×g, 25° C., 3 min), and the obtained supernatant was passed through Amberlite CG-50 column (250 μL), and the non-adsorbed fractions were discarded. Then, 2 mL of 50 mmol/L [[…]]/hydrochloric acid (HCl) (pH 7.5) (Tris) was passed through the column 3 times, and 2 mL of distilled water, and 1.5 mL of a 0.2 mol/L aqueous sodium hydroxide solution were passed through the column in this order, and the eluted fractions were discarded. Then, 2 mL of a 0.2 mol/L aqueous sodium hydroxide solution was passed through the column, and the eluted fraction was recovered in a scintillation vial. Then, 8 mL of Ultimagold (Perkin Elmer) was added to the recovered eluted solution, and the radioactivity ([^3H]-histamine) was measured using a liquid scintillation counter. The inhibitory action of the test compound on the histamine release suppressive action of N^α-methylhistamine was evaluated by obtaining the inhibition ratio to the histamine release suppressive action in the presence of 1 μmol/L No-methylhistamine and 1 μmol/L of the test compound. The inhibition ratio of the [^3H]-histamine release suppressive action was calculated using the following Equation (2). […]

Bounds are passed on as bounds.

This passage reports inhibition and melting point results from US20090181948A1, “DIAMINE DERIVATIVE” (KYOWA HAKKO KOGYO CO., LTD., priority 2005, published 2009).

As a reminder, the melting point is the temperature of the solid-liquid transition.

T1 sequence (Q9QYN8 whole entry): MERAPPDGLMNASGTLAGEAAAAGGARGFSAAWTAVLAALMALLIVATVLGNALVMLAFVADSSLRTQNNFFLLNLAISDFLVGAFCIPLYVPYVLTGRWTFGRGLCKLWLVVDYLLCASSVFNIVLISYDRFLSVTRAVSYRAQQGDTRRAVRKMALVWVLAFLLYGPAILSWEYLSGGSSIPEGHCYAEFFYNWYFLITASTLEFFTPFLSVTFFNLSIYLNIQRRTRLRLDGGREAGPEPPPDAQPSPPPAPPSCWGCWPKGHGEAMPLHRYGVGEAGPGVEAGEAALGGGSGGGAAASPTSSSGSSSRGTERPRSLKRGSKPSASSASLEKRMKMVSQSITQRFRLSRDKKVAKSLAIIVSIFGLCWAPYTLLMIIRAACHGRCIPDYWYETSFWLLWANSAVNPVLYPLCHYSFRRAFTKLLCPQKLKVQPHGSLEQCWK

On to `C[C@@H]1CCCN1CCN1CCN(CCCN2CCCCC2)C1=C(C#N)C#N` [Compound 193, {1-[2-((R)-2-methylpyrrolidin-1-yl)ethyl]-3-(3-piperidinopropyl)imidazolidin-2-ylidene}malononitrile], for which the melting point was 89 to 90 °C. The inhibition at 1 µM on histamine H3 receptor [1] was no less than 80%. For the same molecule, the inhibition at 1 µM on histamine H3 receptor [2] is no less than 70%.
Turning to `C[C@H]1CCCN1CCCN1CCN(CCN2CCC[C@@H]2C)C1=C(C#N)C#N` [Compound 56, {1-[2-((S)-2-methylpyrrolidin-1-yl)ethyl]-3-[3-((S) 2-methylpyrrolidin-1-yl)propyl]imidazolidin-2-ylidene}malononitrile], the melting point was 70 to 72 °C. The inhibition at 1 µM at histamine H3 receptor [1] is no less than 80%. Moreover, the inhibition at 1 µM at histamine H3 receptor [2] is no less than 70%.
For `N#CC(C#N)=C(NCCCN1CCCCC1)N1CCC(N2CCCCC2)CC1` [Compound 160, [(4-Piperidinopiperidino)(3-piperidinopropylamino)methylene]malononitrile], in that order: 117 to 118 °C, no less than 80% and no less than 70%.
Regarding `CN(CCN1CCCCC1)C(=C(C#N)C#N)N1CCC(N2CCCCC2)CC1` [Compound 144, {[Methyl(2-piperidinoethyl)amino](4-piperidinopiperidino)methylene}malononitrile], the melting point lay within 109 to 111 °C. Besides, on histamine H3 receptor [1], the inhibition at 1 µM is no less than 80%. In addition, the inhibition at 1 µM at histamine H3 receptor [2] is no less than 70%.
In the case of `CC(C)N1CCC(N(C)C(=C(C#N)C#N)N2CCC(N3CCCCC3)CC2)CC1` [Compound 176, {[N-(1-isopropylpiperidin-4-yl)-N-methylamino](4-piperidinopiperidino)methylene}malononitrile], the melting point fell in the range of 129 to 130 °C. Moreover, the inhibition at 1 µM at histamine H3 receptor [1] is no less than 80%. Further, the inhibition at 1 µM on histamine H3 receptor [2] was no less than 70%.
Take `CC(C)N1CCC(N(C)C(=C(C#N)C#N)N2CCC(CN3CCCC3C)CC2)CC1` (stereo not shown) [Compound 181, {[N-(1-isopropylpiperidin-4-yl)-N-methylamino][4-(2-methylpyrrolidin-1-ylmethyl)piperidino]methylene}malononitrile]: the melting point is 138 to 140 °C. The inhibition at 1 µM at histamine H3 receptor [1] is no less than 80%. The inhibition at 1 µM on histamine H3 receptor [2] was no less than 70%.
Consider `CC1CCCN1CCCN1CCN(CCCN2CCC[C@@H]2CO)C1=C(C#N)C#N` (stereo partly drawn) [Compound 119, {1-[3-((R)-2-hydroxymethylpyrrolidin-1-yl)propyl]-3-[3-(2-methylpyrrolidin-1-yl)propyl]imidazolidin-2-ylidene}malononitrile], for which the melting point fell in the range of 57 to 59 °C. Also, the inhibition at 1 µM at histamine H3 receptor [1] was no less than 80%. The inhibition at 1 µM at histamine H3 receptor [2] was no less than 70%.
Molecule `CC1CCCN1CCCN1CCN(CCCN2CCCC2C)C1=CS(=O)(=O)CC#N` (stereo not shown) [Compound 137, {1,3-Bis[3-(2-methylpyrrolidin-1-yl)propyl]imidazolidin-2-ylidene}methanesulfonylacetonitrile] registered a melting point of 106 to 110 °C. Further, the inhibition at 1 µM on histamine H3 receptor [1] is no less than 80%. Moreover, the inhibition at 1 µM on histamine H3 receptor [2] is no less than 70%.
Regarding `N#CC(C#N)=C1N(CCCN2CCCCC2)CCN1C1CCN(C2CC2)CC1` [Compound 226, [1-(1-Cyclopropylpiperidin-4-yl)-3-(3-piperidinopropyl)imidazolidin-2-ylidene]malononitrile], the melting point was in the range of 104 to 105 °C. In addition, the inhibition at 1 µM at histamine H3 receptor [1] was no less than 80%. Besides, the inhibition at 1 µM on histamine H3 receptor [2] was no less than 70%.
In the case of `CC(C)N1CCC(NC(=C(C#N)C#N)N2CCC(N3CCCCC3)CC2)CC1` [Compound 175, [(1-Isopropylpiperidin-4-ylamino)(4-piperidinopiperidino)methylene]malononitrile], the values for the inhibition at 1 µM on histamine H3 receptor [1] and on histamine H3 receptor [2] were no less than 80% and no less than 70%, respectively.
For the molecule `CC1CCCN1CCCN1C(=C(C#N)C#N)N(CCCN2CCCC2C)c2ccccc21` (stereo not shown) [Compound 124, {1,3-Bis[3-(2-methylpyrrolidin-1-yl)propyl]benzimidazolidin-2-ylidene}malononitrile], the inhibition at 1 µM on histamine H3 receptor [1] was no less than 80%; on histamine H3 receptor [2], no less than 70%.
In the case of `CC(C)N1CCC(N2CCN(CCCN3CCCCC3)C2=C(C#N)C#N)CC1` [Compound 130, [1-(1-Isopropylpiperidin-4-yl)-3-(3-piperidinopropyl)imidazolidin-2-ylidene]malononitrile], the inhibition at 1 µM is no less than 80% at histamine H3 receptor [1] and no less than 70% at histamine H3 receptor [2].
`N#CC(C#N)=C1N(CCCN2CCCCC2)CCN1CCCN1CCCCC1` [Compound 64, [1,3-Bis(3-piperidinopropyl)imidazolidin-2-ylidene]malononitrile]: the inhibition at 1 µM on histamine H3 receptor [1] was no less than 80%; at histamine H3 receptor [2], no less than 70%.
Regarding `C[C@H]1CCCN1CCN1CCN(CCN2CCC[C@@H]2C)C1=C(C#N)C#N` [Compound 188, {1,3-Bis[2-((S)-2-methylpyrrolidin-1-yl)ethyl]imidazolidin-2-ylidene}malononitrile], the inhibition at 1 µM was no less than 80% at histamine H3 receptor [1] and no less than 70% at histamine H3 receptor [2].
As for `CN1CCC(N2CCN(CCCN3CCCCC3)C2=C(C#N)C#N)CC1` [Compound 129, [1-(1-Methylpiperidin-4-yl)-3-(3-piperidinopropyl)imidazolidin-2-ylidene]malononitrile], the inhibition at 1 µM on histamine H3 receptor [1] was no less than 80%; at histamine H3 receptor [2] it was no less than 70%.
Take `CC1CCCN1CCN1CCN(CCN2CCCC2C)C1=C(C#N)C#N` (stereo not shown) [Compound 6, {1,3-Bis[2-(2-methylpyrrolidin-1-yl)ethyl]imidazolidin-2-ylidene}malononitrile]: the inhibition at 1 µM on histamine H3 receptor [1] was no less than 80%; on histamine H3 receptor [2] it was no less than 70%.
With `CC(C)N1CCC(N2CCN(CCN3CCC[C@H]3C)C2=C(C#N)C#N)CC1` [Compound 213, {1-(1-Isopropylpiperidin-4-yl)-3-[2-((R)-2-methylpyrrolidin-1-yl)ethyl]imidazolidin-2-ylidene}malononitrile], the figures for the inhibition at 1 µM at histamine H3 receptor [1] and on histamine H3 receptor [2] were no less than 80% and no less than 70%, respectively.
`CC1CCCN1CCCN1CCN(CCCN2CCCCCC2)C1=C(C#N)C#N` (stereo not shown) [Compound 71, {1-[3-(Azepan-1-yl)propyl]-3-[3-(2-methylpyrrolidin-1-yl)propyl]imidazolidin-2-ylidene}malononitrile]: the inhibition at 1 µM on histamine H3 receptor [1] was no less than 80%; at histamine H3 receptor [2], no less than 70%.
Consider `CC1CCCCN1CCCN1CCN(CCCN2CCCC2C)C1=C(C#N)C#N` (stereo not shown) [Compound 111, {1-[3-(2-Methylpiperidino)propyl]-3-[3-(2-methylpyrrolidin-1-yl)propyl]imidazolidin-2-ylidene}malononitrile], for which the results for the inhibition at 1 µM on histamine H3 receptor [1] and on histamine H3 receptor [2] were no less than 80% and no less than 70%, respectively.
As for `N#CC(C#N)=C1N(CCCN2CCCCC2)CCN1CCN1CCCCCC1` [Compound 47, {1-[2-(Azepan-1-yl)ethyl]-3-(3-piperidinopropyl)imidazolidin-2-ylidene}malononitrile], the figures for the inhibition at 1 µM on histamine H3 receptor [1] and at histamine H3 receptor [2] were no less than 80% and no less than 70%, respectively.
